Experimental data taken from patent US20210317140A1, “Heterocyclic Compounds and Methods of Use” (MEDIVATION TECHNOLOGIES, INC, priority 2013, published 2021).

How the values were obtained:
BMX/ETK = biological target: T1, BMX/ETK (Homo sapiens, UniProt P51813); assay: BMX/ETK kinase profiling (BTK protocol); type: biochemical; conditions: for BMX/ETK @ 0.3 μM (% Inh): 0.3 μM compound; for IC50: 10 dose IC50
T1 construct: purchased Reaction Biology Corporation
T1 sequence (P51813 1-675): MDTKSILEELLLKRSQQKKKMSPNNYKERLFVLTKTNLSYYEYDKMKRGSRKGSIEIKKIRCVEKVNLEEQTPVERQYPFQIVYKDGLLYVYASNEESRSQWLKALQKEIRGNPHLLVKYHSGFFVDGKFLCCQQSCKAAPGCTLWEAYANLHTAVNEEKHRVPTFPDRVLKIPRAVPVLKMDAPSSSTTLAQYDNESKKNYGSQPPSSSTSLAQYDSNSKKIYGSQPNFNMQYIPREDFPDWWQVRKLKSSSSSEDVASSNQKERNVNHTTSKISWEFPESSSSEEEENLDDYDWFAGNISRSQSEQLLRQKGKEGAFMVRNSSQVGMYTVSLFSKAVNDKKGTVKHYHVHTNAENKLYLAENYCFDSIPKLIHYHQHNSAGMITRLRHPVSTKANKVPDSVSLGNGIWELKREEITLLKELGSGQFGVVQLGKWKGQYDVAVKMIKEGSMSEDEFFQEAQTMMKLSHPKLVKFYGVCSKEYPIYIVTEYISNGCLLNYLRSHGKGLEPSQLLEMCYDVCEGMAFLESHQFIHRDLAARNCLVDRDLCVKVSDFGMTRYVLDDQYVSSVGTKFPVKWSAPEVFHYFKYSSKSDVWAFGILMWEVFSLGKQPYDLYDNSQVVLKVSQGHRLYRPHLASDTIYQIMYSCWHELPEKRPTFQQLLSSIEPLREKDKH
Method: BTK assay: In vitro profiling protein kinases was performed using the “HotSpot” assay platform. Briefly, specific kinase/substrate pairs along with required cofactors were prepared in reaction buffer. Compounds were prepared as 10 mM stock solutions in DMSO. Compounds were delivered into the reaction, followed 15-20 minutes later by addition of a mixture of ATP (Sigma, St. Louis Mo.) and ^33P ATP (Perkin Elmer, Waltham Mass.) to a final concentration of 10 μM. Reactions were carried out at RT for 120 min, followed by spotting of the reactions onto P81 ion exchange filter paper (Whatman Inc., Piscataway, N.J.). Unbound phosphate was removed by extensive washing of filters in 0.75% Phosphoric acid. […] IC50 values and curve fits were obtained using Prism (GraphPad Software). Buffer Conditions: 20 mM Hepes (pH 7.5), 10 mM MgCl2, 1 mM EGTA, 0.02% Brij35, 0.02 mg/mL BSA, 0.1 mM Na3VO4, 2 mM DTT, 1% DMSO.
Compounds of the invention were profiled in a 10 dose IC50 panel against BMX/ETK, ITK and TEC kinases, provided by Reaction Biology Corporation, applied to the BTK protocol provided in Example B1.

PI3Kα = biological target: T2, PI3Kα (Homo sapiens, UniProt P42336); assay: PI3Kα isoform profiling (PI3Kδ protocol); type: biochemical; conditions: for IC50: 10 dose IC50
T2 construct: purchased Reaction Biology Corporation
From the text: PI3Kδ assay: The PIP3 product is detected by displacement of biotin-PIP3 from an energy transfer complex consisting of Europium labeled anti-GST monoclonal antibody, a GST-tagged pleckstrin homology (PH) domain, biotinylated PIP3 and Streptavidin-Allophycocyanin (APC). Excitation of Europium in the complex results in an energy transfer to the APC and a fluorescent emission at 665 nm. The PIP3 product formed by PI 3-Kinase(h) activity displaces biotin-PIP3 from the complex resulting in a loss of energy transfer and thus a decrease in signal. This is a 3-step reaction: First, the kinase reaction with PIP2 substrate is carried out in the presence of ATP (10 μM), and the reaction is quenched with stop Solution, and then finally detect by adding Detection Mixture followed by incubation (10 min). Reaction procedure: 1) Prepare substrate in freshly prepared Reaction Buffer. 2) Deliver kinase into the substrate solution and gently mix. 3) Deliver compounds in 100% DMSO (1 μM) into the kinase reaction mixture by Acoustic technology (Echo550; nanoliter range), incubate for 10 min at RT. 4) Deliver ATP into the reaction mixture to initiate the reaction. 5) Incubate for 30 min at 30° C. 6) Quench the reaction with Stop Solution. 7) Add Detection Mixture, and incubate for overnight. 8) Measure HTRF: Ex=320 nm, ratio of Em=615 nm and Em=665 nm. The emission ratio is converted into μM PIP3 production based on PIP3 standard curves. The nonlinear regression to obtain the standard curve and IC50 values are performed using Graphpad Prism software. Assay Buffer: HEPES 50 mM (pH7.0), NaN3 0.02%, BSA 0.01%, Orthovanadate 0.1 mM, 1% DMSO. Detection buffer: HEPES 10 mM (pH7.0), BSA 0.02%, KF 0.16 M, EDTA 4 mM. Substrate: 10 μM PIP2 substrate (PI(4,5)P2).
Compounds of the invention were profiled in a 10 dose IC50 panel against PI3Kα, PI3Kβ, and PI3Kγ kinases, provided by Reaction Biology Corporation, applied to the PI3Kδ protocol provided in Example B1.

T2 sequence (P42336 whole entry, canonical isoform): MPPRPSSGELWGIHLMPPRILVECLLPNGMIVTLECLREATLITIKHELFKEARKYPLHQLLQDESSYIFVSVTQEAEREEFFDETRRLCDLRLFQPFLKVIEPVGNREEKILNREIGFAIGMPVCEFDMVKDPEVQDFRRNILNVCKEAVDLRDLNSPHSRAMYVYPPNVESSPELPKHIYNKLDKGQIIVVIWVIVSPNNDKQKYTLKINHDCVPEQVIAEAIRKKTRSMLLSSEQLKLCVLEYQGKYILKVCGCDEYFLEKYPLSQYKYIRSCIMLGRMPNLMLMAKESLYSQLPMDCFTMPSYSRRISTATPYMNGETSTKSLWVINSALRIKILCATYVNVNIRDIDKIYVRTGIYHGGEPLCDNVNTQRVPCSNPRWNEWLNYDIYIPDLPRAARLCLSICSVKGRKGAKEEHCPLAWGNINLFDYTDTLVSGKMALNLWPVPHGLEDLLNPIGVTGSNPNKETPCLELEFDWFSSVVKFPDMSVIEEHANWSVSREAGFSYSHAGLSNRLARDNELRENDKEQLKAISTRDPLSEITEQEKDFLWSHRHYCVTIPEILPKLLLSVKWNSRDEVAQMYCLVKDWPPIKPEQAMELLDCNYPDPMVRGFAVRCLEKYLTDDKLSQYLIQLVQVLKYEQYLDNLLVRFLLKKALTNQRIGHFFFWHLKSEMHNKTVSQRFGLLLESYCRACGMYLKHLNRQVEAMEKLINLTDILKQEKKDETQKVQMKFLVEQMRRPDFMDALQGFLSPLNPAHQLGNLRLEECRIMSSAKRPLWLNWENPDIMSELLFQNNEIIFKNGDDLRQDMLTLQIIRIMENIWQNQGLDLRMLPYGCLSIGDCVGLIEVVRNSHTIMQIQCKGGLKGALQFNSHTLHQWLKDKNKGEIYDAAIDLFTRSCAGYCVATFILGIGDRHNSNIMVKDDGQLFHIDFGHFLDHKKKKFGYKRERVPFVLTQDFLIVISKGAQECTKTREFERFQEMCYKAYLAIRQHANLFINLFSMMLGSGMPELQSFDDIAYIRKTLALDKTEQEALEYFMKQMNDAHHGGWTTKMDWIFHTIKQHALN
T2 sequence (P27986 whole entry partner, canonical isoform): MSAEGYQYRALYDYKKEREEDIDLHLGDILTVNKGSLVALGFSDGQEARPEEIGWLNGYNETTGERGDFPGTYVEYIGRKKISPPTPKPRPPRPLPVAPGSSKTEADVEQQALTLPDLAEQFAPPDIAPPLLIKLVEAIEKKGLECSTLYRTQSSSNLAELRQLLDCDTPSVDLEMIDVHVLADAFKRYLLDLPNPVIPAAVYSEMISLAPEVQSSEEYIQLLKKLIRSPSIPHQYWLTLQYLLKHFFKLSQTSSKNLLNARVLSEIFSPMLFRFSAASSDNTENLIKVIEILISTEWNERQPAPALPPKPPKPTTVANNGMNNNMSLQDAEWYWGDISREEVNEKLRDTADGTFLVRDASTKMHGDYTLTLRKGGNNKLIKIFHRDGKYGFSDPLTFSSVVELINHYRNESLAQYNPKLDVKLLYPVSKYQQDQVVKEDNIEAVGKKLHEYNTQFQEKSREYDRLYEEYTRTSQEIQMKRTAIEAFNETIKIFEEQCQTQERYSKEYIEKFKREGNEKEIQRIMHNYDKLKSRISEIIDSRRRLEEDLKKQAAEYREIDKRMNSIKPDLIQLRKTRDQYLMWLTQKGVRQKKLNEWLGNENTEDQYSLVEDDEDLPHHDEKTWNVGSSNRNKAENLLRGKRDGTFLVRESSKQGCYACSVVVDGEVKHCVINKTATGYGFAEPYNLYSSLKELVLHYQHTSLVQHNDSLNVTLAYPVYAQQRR

BMX/ETK @ 0.3 μM (% Inh) (BMX/ETK)	IC50 (PI3Kα) [nM]	IC50 (BMX/ETK) [nM]	PI3Kα @ 0.3 μM (% Inh) (PI3Kα; 0.3 μM compound)	SMILES
110.06	50.9			Nc1ncnc2c1c(-c1ccc(Cl)c(O)c1)cn2C1Cc2ccccc2C1 [Compound No. 93, 5-[4-amino-7-(2,3-dihydro-1H-inden-2-yl)-7H-pyrrolo[2,3-d]pyrimidin-5-yl]-2-chlorophenol]
94.69	74.7			Nc1ncnc2c1c(-c1cc(O)cc(F)c1)cn2C1Cc2ccccc2C1 [Compound No. 63, 3-[4-amino-7-(2,3-dihydro-1H-inden-2-yl)-7H-pyrrolo[2,3-d]pyrimidin-5-yl]-5-fluorophenol]
	143	3.1		Nc1ncnc2c1c(-c1ccc(F)c(O)c1)nn2C1CCc2ccccc2C1 (single isomer, unassigned) [Compound No. 26a, 5-(4-amino-1-(1,2,3,4-tetrahydronaphthalen-2-yl)-1H-pyrazolo[3,4-d]pyrimidin-3-yl)-2-fluorophenol]
	20.1	184		Nc1ncnc2c1c(-c1cc(O)cc(F)c1)nn2C1CCc2ccccc2C1 (stereo not drawn) [compound 6, 3-(4-amino-1-(1,2,3,4-tetrahydronaphthalen-2-yl)-1H-pyrazolo[3,4-d]pyrimidin-3-yl)-5-fluorophenol]
89.72	539	6400	50.6	C=CC(=O)N1CC(n2nc(-c3cc(O)cc(F)c3)c3c(N)ncnc32)Cc2cc(C)ccc21 (stereo not drawn) [compound 31, 1-(3-(4-amino-3-(3-fluoro-5-hydroxyphenyl)-1H-pyrazolo[3,4-d]pyrimidin-1-yl)-6-methyl-3,4-dihydroquinolin-1(2H)-yl)prop-2-en-1-one]
